Reference: the kinase profiling compilation of Christmann-Franck et al. (2016)
Where “and” joins values, the source holds several entries; their conditions need not be identical. Identical values can stand only once.

What follows are compounds tested against MAP2K2 (human) (UniProt P36507) (assay: radiometric filter-binding kinase assay, Kinase HotSpot). Settings: compound 0.5 µM; ATP 10 µM.
Sequence of MAP2K2 (human) (P36507 whole entry, looked up): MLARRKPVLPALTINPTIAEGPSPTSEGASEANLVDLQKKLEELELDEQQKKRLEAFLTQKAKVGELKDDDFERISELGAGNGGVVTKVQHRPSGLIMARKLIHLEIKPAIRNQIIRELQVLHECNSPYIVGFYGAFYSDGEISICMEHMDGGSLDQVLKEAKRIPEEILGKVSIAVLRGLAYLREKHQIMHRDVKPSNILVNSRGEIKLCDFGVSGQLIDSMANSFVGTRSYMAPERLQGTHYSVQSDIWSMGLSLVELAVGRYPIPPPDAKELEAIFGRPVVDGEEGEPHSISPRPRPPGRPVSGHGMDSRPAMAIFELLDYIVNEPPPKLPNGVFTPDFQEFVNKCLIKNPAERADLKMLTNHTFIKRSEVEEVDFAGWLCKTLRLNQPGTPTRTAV
`COc1cc2ncnc(Nc3ccc(F)c(Cl)c3)c2cc1OCCCN1CCOCC1` gave a residual activity of 102%. With `C#Cc1cccc(Nc2ncnc3cc(OCCOC)c(OCCOC)cc23)c1` the residual activity was 105%. Work on `Nc1nc(Nc2ccc(S(N)(=O)=O)cc2)nn1C(=O)c1c(F)cccc1F` yielded a residual activity of 85.6%. `Clc1ccc(Nc2nnc(Cc3ccncc3)c3ccccc23)cc1` was tested, and the residual activity was 100%. `O=C1Nc2ccccc2/C1=C\c1c(Cl)[nH]c2ccccc12` gave a residual activity of 98.7%.

Each compound was assayed against TSSK1B (human) (UniProt Q9BXA7) in the same assay as above. Settings: compound 0.5 µM; ATP 10 µM.
Sequence of TSSK1B (human) (Q9BXA7 whole entry, looked up): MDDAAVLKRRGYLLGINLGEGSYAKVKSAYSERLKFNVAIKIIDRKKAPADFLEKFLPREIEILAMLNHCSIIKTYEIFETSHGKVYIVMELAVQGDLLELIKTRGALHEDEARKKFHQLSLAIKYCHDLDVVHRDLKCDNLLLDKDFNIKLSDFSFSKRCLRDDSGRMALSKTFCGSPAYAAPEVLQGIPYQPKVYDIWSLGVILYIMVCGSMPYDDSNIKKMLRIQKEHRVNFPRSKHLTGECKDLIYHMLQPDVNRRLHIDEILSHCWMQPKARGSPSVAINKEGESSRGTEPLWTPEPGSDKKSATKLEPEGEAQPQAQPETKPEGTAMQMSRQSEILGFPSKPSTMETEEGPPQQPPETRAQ
`COc1cc2ncnc(Nc3ccc(F)c(Cl)c3)c2cc1OCCCN1CCOCC1` showed a residual activity of 90%. `C#Cc1cccc(Nc2ncnc3cc(OCCOC)c(OCCOC)cc23)c1` showed a residual activity of 78.9%. In the case of `Nc1nc(Nc2ccc(S(N)(=O)=O)cc2)nn1C(=O)c1c(F)cccc1F`, the residual activity is reported as 85.5%. Compound `Clc1ccc(Nc2nnc(Cc3ccncc3)c3ccccc23)cc1` has a residual activity of 94.8%. For `O=C1Nc2ccccc2/C1=C\c1c(Cl)[nH]c2ccccc12`, the residual activity was 101%.

What follows are compounds tested against MET (human) (UniProt P08581) in the same assay as above. Settings: compound 0.5 µM; ATP 10 µM.
Sequence of MET (human) (P08581 whole entry, looked up): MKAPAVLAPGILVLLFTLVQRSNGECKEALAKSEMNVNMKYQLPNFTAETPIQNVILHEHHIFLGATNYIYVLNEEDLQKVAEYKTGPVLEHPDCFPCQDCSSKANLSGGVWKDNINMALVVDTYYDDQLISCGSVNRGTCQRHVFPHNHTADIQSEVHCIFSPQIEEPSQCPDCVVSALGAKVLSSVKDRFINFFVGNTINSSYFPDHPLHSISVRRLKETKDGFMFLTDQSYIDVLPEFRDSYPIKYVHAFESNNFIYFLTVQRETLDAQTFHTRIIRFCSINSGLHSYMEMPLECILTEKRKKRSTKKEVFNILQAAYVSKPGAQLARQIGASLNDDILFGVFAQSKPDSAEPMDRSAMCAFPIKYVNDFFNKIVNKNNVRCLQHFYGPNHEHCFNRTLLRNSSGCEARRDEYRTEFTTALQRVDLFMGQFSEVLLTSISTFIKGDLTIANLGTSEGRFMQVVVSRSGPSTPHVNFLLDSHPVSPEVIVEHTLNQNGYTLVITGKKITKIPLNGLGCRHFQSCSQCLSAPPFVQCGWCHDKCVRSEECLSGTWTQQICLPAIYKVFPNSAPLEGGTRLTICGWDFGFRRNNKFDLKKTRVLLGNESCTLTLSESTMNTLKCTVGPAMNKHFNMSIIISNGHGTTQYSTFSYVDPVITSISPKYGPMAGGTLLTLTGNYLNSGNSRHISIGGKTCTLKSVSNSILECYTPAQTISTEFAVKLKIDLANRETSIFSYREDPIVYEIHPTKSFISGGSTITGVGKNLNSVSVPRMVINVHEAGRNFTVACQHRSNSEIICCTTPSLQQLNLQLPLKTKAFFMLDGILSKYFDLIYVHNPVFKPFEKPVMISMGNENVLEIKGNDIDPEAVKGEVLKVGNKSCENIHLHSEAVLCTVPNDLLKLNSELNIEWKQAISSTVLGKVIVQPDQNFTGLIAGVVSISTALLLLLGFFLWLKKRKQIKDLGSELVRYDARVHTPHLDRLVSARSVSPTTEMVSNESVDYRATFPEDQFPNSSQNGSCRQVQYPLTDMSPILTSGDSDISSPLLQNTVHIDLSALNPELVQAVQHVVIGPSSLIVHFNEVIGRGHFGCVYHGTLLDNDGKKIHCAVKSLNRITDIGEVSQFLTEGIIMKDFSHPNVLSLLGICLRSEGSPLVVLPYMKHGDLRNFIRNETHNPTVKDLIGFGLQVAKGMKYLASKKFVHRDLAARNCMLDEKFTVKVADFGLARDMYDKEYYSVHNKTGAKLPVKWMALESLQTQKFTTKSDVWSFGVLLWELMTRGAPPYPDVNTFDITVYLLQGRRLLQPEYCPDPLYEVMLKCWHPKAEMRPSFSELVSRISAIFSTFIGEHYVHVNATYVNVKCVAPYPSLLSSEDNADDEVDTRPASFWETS
`COc1cc2ncnc(Nc3ccc(F)c(Cl)c3)c2cc1OCCCN1CCOCC1` showed a residual activity of 92.4%. With `Nc1nc(Nc2ccc(S(N)(=O)=O)cc2)nn1C(=O)c1c(F)cccc1F` the residual activity was 75.3%. In the case of `Clc1ccc(Nc2nnc(Cc3ccncc3)c3ccccc23)cc1`, the residual activity is reported as 94%. For `O=C1Nc2ccccc2/C1=C\c1c(Cl)[nH]c2ccccc12`, the residual activity was 109%.

The compounds below were run against ROS1 (human) (UniProt P08922) in the same assay as above. Settings: compound 0.5 µM; ATP 10 µM.
Compound `COc1cc2ncnc(Nc3ccc(F)c(Cl)c3)c2cc1OCCCN1CCOCC1` has a residual activity of 92.3%. Compound `C#Cc1cccc(Nc2ncnc3cc(OCCOC)c(OCCOC)cc23)c1` has a residual activity of 99.6%. `Nc1nc(Nc2ccc(S(N)(=O)=O)cc2)nn1C(=O)c1c(F)cccc1F` showed a residual activity of 39.5%. `Clc1ccc(Nc2nnc(Cc3ccncc3)c3ccccc23)cc1` gave a residual activity of 94.7%. For `O=C1Nc2ccccc2/C1=C\c1c(Cl)[nH]c2ccccc12`, the residual activity was 109%.

What follows are compounds tested against RET (human) (UniProt P07949) in the same assay as above. Settings: compound 0.5 µM; ATP 10 µM.
`COc1cc2ncnc(Nc3ccc(F)c(Cl)c3)c2cc1OCCCN1CCOCC1` was tested, and the residual activity was 76.9%. Compound `C#Cc1cccc(Nc2ncnc3cc(OCCOC)c(OCCOC)cc23)c1` has a residual activity of 48.6%. `Nc1nc(Nc2ccc(S(N)(=O)=O)cc2)nn1C(=O)c1c(F)cccc1F` was tested, and the residual activity was 54.1%. For `Clc1ccc(Nc2nnc(Cc3ccncc3)c3ccccc23)cc1`, the residual activity was 89.1%. For `O=C1Nc2ccccc2/C1=C\c1c(Cl)[nH]c2ccccc12`, the residual activity was 93%.

These compounds were tested against CSNK1G3 (human) (UniProt Q9Y6M4) in the same assay as above. Settings: compound 0.5 µM; ATP 10 µM.
In the case of `COc1cc2ncnc(Nc3ccc(F)c(Cl)c3)c2cc1OCCCN1CCOCC1`, the residual activity is reported as 103%. `C#Cc1cccc(Nc2ncnc3cc(OCCOC)c(OCCOC)cc23)c1` showed a residual activity of 106%. `Clc1ccc(Nc2nnc(Cc3ccncc3)c3ccccc23)cc1` gave a residual activity of 100%. `O=C1Nc2ccccc2/C1=C\c1c(Cl)[nH]c2ccccc12` showed a residual activity of 92.8%.

These compounds were tested against DYRK1B (human) (UniProt Q9Y463) in the same assay as above. Settings: compound 0.5 µM; ATP 10 µM.
`COc1cc2ncnc(Nc3ccc(F)c(Cl)c3)c2cc1OCCCN1CCOCC1` gave a residual activity of 91.9%. `C#Cc1cccc(Nc2ncnc3cc(OCCOC)c(OCCOC)cc23)c1` showed a residual activity of 93.7%. For `Nc1nc(Nc2ccc(S(N)(=O)=O)cc2)nn1C(=O)c1c(F)cccc1F`, the residual activity was 87.6%. Work on `Clc1ccc(Nc2nnc(Cc3ccncc3)c3ccccc23)cc1` yielded a residual activity of 109%. With `O=C1Nc2ccccc2/C1=C\c1c(Cl)[nH]c2ccccc12` the residual activity was 99.3%.

The compounds below were run against BRSK1 (human) (UniProt Q8TDC3) in the same assay as above. Settings: compound 0.5 µM; ATP 10 µM.
For `COc1cc2ncnc(Nc3ccc(F)c(Cl)c3)c2cc1OCCCN1CCOCC1`, the residual activity was 92.5%. For `Nc1nc(Nc2ccc(S(N)(=O)=O)cc2)nn1C(=O)c1c(F)cccc1F`, the residual activity was 49.2%. For `Clc1ccc(Nc2nnc(Cc3ccncc3)c3ccccc23)cc1`, the residual activity was 93.1%. For `O=C1Nc2ccccc2/C1=C\c1c(Cl)[nH]c2ccccc12`, the residual activity was 91.9%.

The compounds below were run against CHUK (human) (UniProt O15111) in the same assay as above. Settings: compound 0.5 µM; ATP 10 µM.
Sequence of CHUK (human) (O15111 whole entry, looked up): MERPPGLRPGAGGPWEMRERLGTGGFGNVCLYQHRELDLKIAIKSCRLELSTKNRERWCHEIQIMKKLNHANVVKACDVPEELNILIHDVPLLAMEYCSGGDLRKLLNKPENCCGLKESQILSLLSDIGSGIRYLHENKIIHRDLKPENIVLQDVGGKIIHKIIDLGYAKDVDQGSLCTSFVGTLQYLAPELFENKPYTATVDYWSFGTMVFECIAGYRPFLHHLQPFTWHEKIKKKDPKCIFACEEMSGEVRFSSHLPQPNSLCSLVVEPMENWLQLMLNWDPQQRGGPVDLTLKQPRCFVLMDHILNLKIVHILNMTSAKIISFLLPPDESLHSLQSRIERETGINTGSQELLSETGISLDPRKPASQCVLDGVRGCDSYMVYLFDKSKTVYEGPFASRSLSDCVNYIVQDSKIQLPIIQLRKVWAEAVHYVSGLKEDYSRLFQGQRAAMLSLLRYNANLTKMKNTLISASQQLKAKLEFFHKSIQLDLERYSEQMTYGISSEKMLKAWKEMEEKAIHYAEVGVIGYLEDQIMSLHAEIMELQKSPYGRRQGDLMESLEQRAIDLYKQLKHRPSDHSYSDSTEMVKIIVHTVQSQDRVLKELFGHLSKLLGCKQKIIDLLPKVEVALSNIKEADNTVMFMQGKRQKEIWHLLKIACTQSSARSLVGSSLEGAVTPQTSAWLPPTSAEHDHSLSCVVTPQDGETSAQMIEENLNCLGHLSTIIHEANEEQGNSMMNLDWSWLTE
`COc1cc2ncnc(Nc3ccc(F)c(Cl)c3)c2cc1OCCCN1CCOCC1` was tested, and the residual activity was 94.9%. `C#Cc1cccc(Nc2ncnc3cc(OCCOC)c(OCCOC)cc23)c1` gave a residual activity of 94.2%. `Nc1nc(Nc2ccc(S(N)(=O)=O)cc2)nn1C(=O)c1c(F)cccc1F` gave a residual activity of 99%. In the case of `Clc1ccc(Nc2nnc(Cc3ccncc3)c3ccccc23)cc1`, the residual activity is reported as 104%. In the case of `O=C1Nc2ccccc2/C1=C\c1c(Cl)[nH]c2ccccc12`, the residual activity is reported as 94.2%.

Each compound was assayed against MST1R (human) (UniProt Q04912) in the same assay as above. Settings: compound 0.5 µM; ATP 10 µM.
In the case of `COc1cc2ncnc(Nc3ccc(F)c(Cl)c3)c2cc1OCCCN1CCOCC1`, the residual activity is reported as 97.7%. Work on `C#Cc1cccc(Nc2ncnc3cc(OCCOC)c(OCCOC)cc23)c1` yielded a residual activity of 93.6%. For `Nc1nc(Nc2ccc(S(N)(=O)=O)cc2)nn1C(=O)c1c(F)cccc1F`, the residual activity was 115%. Work on `Clc1ccc(Nc2nnc(Cc3ccncc3)c3ccccc23)cc1` yielded a residual activity of 91.6%. `O=C1Nc2ccccc2/C1=C\c1c(Cl)[nH]c2ccccc12` showed a residual activity of 97.5%.

The compounds below were run against EPHB3 (human) (UniProt P54753) in the same assay as above. Settings: compound 0.5 µM; ATP 10 µM.
For `COc1cc2ncnc(Nc3ccc(F)c(Cl)c3)c2cc1OCCCN1CCOCC1`, the residual activity was 57.5%. In the case of `C#Cc1cccc(Nc2ncnc3cc(OCCOC)c(OCCOC)cc23)c1`, the residual activity is reported as 58%. `Nc1nc(Nc2ccc(S(N)(=O)=O)cc2)nn1C(=O)c1c(F)cccc1F` gave a residual activity of 98.5%. With `Clc1ccc(Nc2nnc(Cc3ccncc3)c3ccccc23)cc1` the residual activity was 65.1%. With `O=C1Nc2ccccc2/C1=C\c1c(Cl)[nH]c2ccccc12` the residual activity was 91.3%.

What follows are compounds tested against PAK7 (human) (UniProt Q9P286) in the same assay as above. Settings: compound 0.5 µM; ATP 10 µM.
With `COc1cc2ncnc(Nc3ccc(F)c(Cl)c3)c2cc1OCCCN1CCOCC1` the residual activity was 97.4%. With `C#Cc1cccc(Nc2ncnc3cc(OCCOC)c(OCCOC)cc23)c1` the residual activity was 97.3%. Work on `Nc1nc(Nc2ccc(S(N)(=O)=O)cc2)nn1C(=O)c1c(F)cccc1F` yielded a residual activity of 85.4%. For `Clc1ccc(Nc2nnc(Cc3ccncc3)c3ccccc23)cc1`, the residual activity was 97.1%.

What follows are compounds tested against TNK2 (human) (UniProt Q07912) in the same assay as above. Settings: compound 0.5 µM; ATP 10 µM.
In the case of `COc1cc2ncnc(Nc3ccc(F)c(Cl)c3)c2cc1OCCCN1CCOCC1`, the residual activity is reported as 72.8%. `Nc1nc(Nc2ccc(S(N)(=O)=O)cc2)nn1C(=O)c1c(F)cccc1F` showed a residual activity of 68%. `Clc1ccc(Nc2nnc(Cc3ccncc3)c3ccccc23)cc1` showed a residual activity of 91.7%. `O=C1Nc2ccccc2/C1=C\c1c(Cl)[nH]c2ccccc12` was tested, and the residual activity was 98.4%.

What follows are compounds tested against GSK3A (human) (UniProt P49840) in the same assay as above. Settings: compound 0.5 µM; ATP 10 µM.
Sequence of GSK3A (human) (P49840 whole entry, looked up): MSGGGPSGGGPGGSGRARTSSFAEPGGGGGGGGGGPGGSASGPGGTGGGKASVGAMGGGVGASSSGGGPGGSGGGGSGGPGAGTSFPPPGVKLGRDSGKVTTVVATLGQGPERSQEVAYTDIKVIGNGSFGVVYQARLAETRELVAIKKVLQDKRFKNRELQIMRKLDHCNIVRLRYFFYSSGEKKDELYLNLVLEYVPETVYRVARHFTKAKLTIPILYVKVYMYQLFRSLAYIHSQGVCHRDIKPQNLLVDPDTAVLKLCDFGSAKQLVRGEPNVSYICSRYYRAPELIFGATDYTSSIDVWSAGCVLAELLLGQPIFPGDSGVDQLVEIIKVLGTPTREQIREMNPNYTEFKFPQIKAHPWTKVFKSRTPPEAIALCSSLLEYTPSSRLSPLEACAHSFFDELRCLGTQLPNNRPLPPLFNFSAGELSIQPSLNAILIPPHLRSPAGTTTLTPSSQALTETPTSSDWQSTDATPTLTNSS
With `COc1cc2ncnc(Nc3ccc(F)c(Cl)c3)c2cc1OCCCN1CCOCC1` the residual activity was 99.7%. Compound `C#Cc1cccc(Nc2ncnc3cc(OCCOC)c(OCCOC)cc23)c1` has a residual activity of 99.3%. With `Nc1nc(Nc2ccc(S(N)(=O)=O)cc2)nn1C(=O)c1c(F)cccc1F` the residual activity was 9.59%. Work on `Clc1ccc(Nc2nnc(Cc3ccncc3)c3ccccc23)cc1` yielded a residual activity of 103%. For `O=C1Nc2ccccc2/C1=C\c1c(Cl)[nH]c2ccccc12`, the residual activity was 99.3%.

Each compound was assayed against PRKG1 (human) (UniProt Q13976) in the same assay as above. Settings: compound 0.5 µM; ATP 10 µM.
For `COc1cc2ncnc(Nc3ccc(F)c(Cl)c3)c2cc1OCCCN1CCOCC1`, the residual activity was 103% and 87.5%. In the case of `C#Cc1cccc(Nc2ncnc3cc(OCCOC)c(OCCOC)cc23)c1`, the residual activity is reported as 85.6% and 93.5%. In the case of `Nc1nc(Nc2ccc(S(N)(=O)=O)cc2)nn1C(=O)c1c(F)cccc1F`, the residual activity is reported as 104% and 86.1%. With `Clc1ccc(Nc2nnc(Cc3ccncc3)c3ccccc23)cc1` the residual activity was 94.1% and 97.2%. With `O=C1Nc2ccccc2/C1=C\c1c(Cl)[nH]c2ccccc12` the residual activity was 92.5% and 93.6%.

These compounds were tested against PLK1 (human) (UniProt P53350) in the same assay as above. Settings: compound 0.5 µM; ATP 10 µM.
Sequence of PLK1 (human) (P53350 whole entry, looked up): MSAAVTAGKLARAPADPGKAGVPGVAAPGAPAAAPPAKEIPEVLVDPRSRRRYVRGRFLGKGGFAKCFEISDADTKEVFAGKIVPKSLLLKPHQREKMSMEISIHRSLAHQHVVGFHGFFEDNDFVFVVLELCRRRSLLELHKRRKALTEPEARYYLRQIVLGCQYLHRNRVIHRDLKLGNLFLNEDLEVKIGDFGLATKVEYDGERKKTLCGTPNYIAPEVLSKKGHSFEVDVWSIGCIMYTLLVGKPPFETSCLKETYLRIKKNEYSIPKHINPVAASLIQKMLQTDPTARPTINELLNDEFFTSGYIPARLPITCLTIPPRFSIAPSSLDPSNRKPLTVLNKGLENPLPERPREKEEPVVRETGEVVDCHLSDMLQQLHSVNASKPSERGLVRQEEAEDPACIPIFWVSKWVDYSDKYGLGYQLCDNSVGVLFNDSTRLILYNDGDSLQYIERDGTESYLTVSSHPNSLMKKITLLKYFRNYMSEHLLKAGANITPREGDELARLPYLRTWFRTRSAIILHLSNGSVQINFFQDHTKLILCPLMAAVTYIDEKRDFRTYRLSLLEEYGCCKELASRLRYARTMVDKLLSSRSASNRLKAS
`COc1cc2ncnc(Nc3ccc(F)c(Cl)c3)c2cc1OCCCN1CCOCC1` showed a residual activity of 97%. With `C#Cc1cccc(Nc2ncnc3cc(OCCOC)c(OCCOC)cc23)c1` the residual activity was 100%. For `Nc1nc(Nc2ccc(S(N)(=O)=O)cc2)nn1C(=O)c1c(F)cccc1F`, the residual activity was 97.5%. With `Clc1ccc(Nc2nnc(Cc3ccncc3)c3ccccc23)cc1` the residual activity was 95.9%. `O=C1Nc2ccccc2/C1=C\c1c(Cl)[nH]c2ccccc12` showed a residual activity of 95.4%.

Each compound was assayed against AKT1 (human) (UniProt P31749) in the same assay as above. Settings: compound 0.5 µM; ATP 10 µM.
Sequence of AKT1 (human) (P31749 whole entry, looked up): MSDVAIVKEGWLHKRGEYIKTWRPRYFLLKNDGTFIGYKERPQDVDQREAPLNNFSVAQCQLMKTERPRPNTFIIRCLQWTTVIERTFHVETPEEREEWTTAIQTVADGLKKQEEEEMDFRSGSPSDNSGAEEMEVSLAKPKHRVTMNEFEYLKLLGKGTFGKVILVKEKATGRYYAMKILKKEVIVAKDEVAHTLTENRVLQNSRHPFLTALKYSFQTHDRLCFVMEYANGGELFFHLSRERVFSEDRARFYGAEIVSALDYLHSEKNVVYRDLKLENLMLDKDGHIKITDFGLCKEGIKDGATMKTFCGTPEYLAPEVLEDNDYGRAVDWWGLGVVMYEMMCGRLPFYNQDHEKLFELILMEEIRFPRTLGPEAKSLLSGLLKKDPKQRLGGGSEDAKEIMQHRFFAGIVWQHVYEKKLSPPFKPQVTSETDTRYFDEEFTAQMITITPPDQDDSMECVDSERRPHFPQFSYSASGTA
`COc1cc2ncnc(Nc3ccc(F)c(Cl)c3)c2cc1OCCCN1CCOCC1` showed a residual activity of 94.1%. `C#Cc1cccc(Nc2ncnc3cc(OCCOC)c(OCCOC)cc23)c1` gave a residual activity of 93.7%. With `Nc1nc(Nc2ccc(S(N)(=O)=O)cc2)nn1C(=O)c1c(F)cccc1F` the residual activity was 120%. `Clc1ccc(Nc2nnc(Cc3ccncc3)c3ccccc23)cc1` was tested, and the residual activity was 103%. `O=C1Nc2ccccc2/C1=C\c1c(Cl)[nH]c2ccccc12` showed a residual activity of 94%.

The compounds below were run against CHEK2 (human) (UniProt O96017) in the same assay as above. Settings: compound 0.5 µM; ATP 10 µM.
Sequence of CHEK2 (human) (O96017 whole entry, looked up): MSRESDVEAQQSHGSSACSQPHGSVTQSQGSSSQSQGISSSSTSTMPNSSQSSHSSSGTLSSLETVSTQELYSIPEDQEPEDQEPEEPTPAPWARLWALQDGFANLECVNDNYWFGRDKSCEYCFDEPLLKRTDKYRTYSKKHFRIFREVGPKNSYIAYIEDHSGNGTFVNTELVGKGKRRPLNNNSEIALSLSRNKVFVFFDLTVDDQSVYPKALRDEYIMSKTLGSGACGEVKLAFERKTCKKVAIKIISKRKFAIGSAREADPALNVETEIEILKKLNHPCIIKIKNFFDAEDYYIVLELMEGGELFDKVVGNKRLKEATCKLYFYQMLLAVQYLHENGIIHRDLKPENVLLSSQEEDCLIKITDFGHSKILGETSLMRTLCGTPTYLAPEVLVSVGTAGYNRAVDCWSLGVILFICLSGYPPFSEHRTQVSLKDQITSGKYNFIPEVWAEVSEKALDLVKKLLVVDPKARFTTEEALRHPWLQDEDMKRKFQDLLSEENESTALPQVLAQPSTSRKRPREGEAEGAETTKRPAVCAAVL
In the case of `COc1cc2ncnc(Nc3ccc(F)c(Cl)c3)c2cc1OCCCN1CCOCC1`, the residual activity is reported as 84%. Compound `C#Cc1cccc(Nc2ncnc3cc(OCCOC)c(OCCOC)cc23)c1` has a residual activity of 100%. `Nc1nc(Nc2ccc(S(N)(=O)=O)cc2)nn1C(=O)c1c(F)cccc1F` showed a residual activity of 63.6%. `Clc1ccc(Nc2nnc(Cc3ccncc3)c3ccccc23)cc1` was tested, and the residual activity was 98.5%. `O=C1Nc2ccccc2/C1=C\c1c(Cl)[nH]c2ccccc12` was tested, and the residual activity was 99.4%.

The compounds below were run against PAK3 (human) (UniProt O75914) in the same assay as above. Settings: compound 0.5 µM; ATP 10 µM.
In the case of `COc1cc2ncnc(Nc3ccc(F)c(Cl)c3)c2cc1OCCCN1CCOCC1`, the residual activity is reported as 106%. `C#Cc1cccc(Nc2ncnc3cc(OCCOC)c(OCCOC)cc23)c1` gave a residual activity of 106%. Compound `Clc1ccc(Nc2nnc(Cc3ccncc3)c3ccccc23)cc1` has a residual activity of 107%. `O=C1Nc2ccccc2/C1=C\c1c(Cl)[nH]c2ccccc12` was tested, and the residual activity was 98.8%.

The compounds below were run against TAOK3 (human) (UniProt Q9H2K8) in the same assay as above. Settings: compound 0.5 µM; ATP 10 µM.
For `COc1cc2ncnc(Nc3ccc(F)c(Cl)c3)c2cc1OCCCN1CCOCC1`, the residual activity was 99.5%. For `C#Cc1cccc(Nc2ncnc3cc(OCCOC)c(OCCOC)cc23)c1`, the residual activity was 106%. `Nc1nc(Nc2ccc(S(N)(=O)=O)cc2)nn1C(=O)c1c(F)cccc1F` gave a residual activity of 39.9%. With `Clc1ccc(Nc2nnc(Cc3ccncc3)c3ccccc23)cc1` the residual activity was 99.9%. With `O=C1Nc2ccccc2/C1=C\c1c(Cl)[nH]c2ccccc12` the residual activity was 93.9%.

These compounds were tested against WEE1 (human) (UniProt P30291) in the same assay as above. Settings: compound 0.5 µM; ATP 10 µM.
For `COc1cc2ncnc(Nc3ccc(F)c(Cl)c3)c2cc1OCCCN1CCOCC1`, the residual activity was 93.8%.
